Several values for one entry are separate records, joined by “and”; a condition that tells them apart may be missing. Equal entries are not always repeated. Inconclusive results and toxic doses are left out. No stated cut-off is given here; in the data, active means T/C of 150% or more; inactive means T/C below 125%.
Tested on: L1210 leukemia ip in BDF1 mice, survival T/C
Test: NCI In Vivo Anticancer Drug Screen. Data for tumor model L1210 Leukemia (intraperitoneal) in B6D2F1 (BDF1) mice
Details: endpoint: mean survival time, higher = longer survival
Procedure, shortened: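 Tumor cells were implanted, animals were treated, and survival was followed. The result divides the treated measurement by the vehicle-control measurement.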

[1] = dose: 50.0 mg/kg/injection, schedule: Q01DX001 (ip), vehicle: saline
[2] = dose: 100.0 mg/kg/injection, schedule: Q01DX001 (ip), vehicle: saline
[3] = dose: 200.0 mg/kg/injection, schedule: Q01DX001 (ip), vehicle: saline
[4] = dose: 100.0 mg/kg/injection, schedule: Q01DX001 (ip), vehicle: saline with Tween-80
[5] = dose: 400.0 mg/kg/injection, schedule: Q01DX001 (ip), vehicle: saline with Tween-80
[6] = dose: 100.0 mg/kg/injection, schedule: Q01DX001 (ip), vehicle: carboxymethylcellulose (CMC)
[7] = dose: 200.0 mg/kg/injection, schedule: Q01DX001 (ip), vehicle: carboxymethylcellulose (CMC)
[8] = dose: 400.0 mg/kg/injection, schedule: Q01DX001 (ip), vehicle: carboxymethylcellulose (CMC)
[9] = dose: 100.0 mg/kg/injection, schedule: Q04DX003 (ip), vehicle: saline with Tween-80
[10] = dose: 200.0 mg/kg/injection, schedule: Q04DX003 (ip), vehicle: saline with Tween-80
[11] = dose: 400.0 mg/kg/injection, schedule: Q04DX003 (ip), vehicle: saline with Tween-80
[12] = dose: 400.0 mg/kg/injection, schedule: Q01DX001 (ip), vehicle: saline
[13] = dose: 200.0 mg/kg/injection, schedule: Q01DX001 (ip), vehicle: saline with Tween-80
[14] = dose: 100.0 mg/kg/injection, schedule: Q01DX009 (ip), vehicle: saline with Tween-80
[15] = dose: 200.0 mg/kg/injection, schedule: Q01DX009 (ip), vehicle: saline with Tween-80
[16] = dose: 400.0 mg/kg/injection, schedule: Q01DX009 (ip), vehicle: saline with Tween-80

Measured: T/C

CC(=O)c1cccnc1
inactive: [1] 104 % of control | [2] 91 % of control | [3] 93 % of control

Cn1c(=O)c2c(ncn2CCCCO)n(C)c1=O
inactive: dose: 100.0 mg/kg/injection, schedule: Q01DX009 (ip), vehicle: saline 94 % of control | dose: 200.0 mg/kg/injection, schedule: Q01DX009 (ip), vehicle: saline 95 % of control | dose: 400.0 mg/kg/injection, schedule: Q01DX009 (ip), vehicle: saline 92 % of control

CCCCCCCCCCCC(C1CCC(C)CC1)C1CCC(C)CC1 (stereo not drawn)
inactive: [4] 95 % of control | [5] 89 % of control

CC(=O)[O][Hg][CH2]C1(C)COC(C)([CH2][Hg][O]C(C)=O)CO1 (stereo not drawn)
inactive: dose: 10.0 mg/kg/injection, schedule: Q01DX001 (ip), vehicle: carboxymethylcellulose (CMC) 108 % of control | dose: 20.0 mg/kg/injection, schedule: Q01DX001 (ip), vehicle: carboxymethylcellulose (CMC) 97 % of control | dose: 80.0 mg/kg/injection, schedule: Q01DX001 (ip), vehicle: carboxymethylcellulose (CMC) 97 % of control

COc1cc(/C(C)=C2/SC(=S)NC2=O)cc(OC)c1OC
inactive: [6] 92 % of control | [7] 90 % of control | [8] 95 % of control

Nc1ccc(S(=O)(=O)CC(=O)N2CCOCC2)cc1
inactive: [9] 100 % of control | [10] 97 % of control | [11] 97 % of control

Cn1c(=O)c2ccc(C(=O)O)cc2c(=O)n1C
inactive: dose: 12.5 mg/kg/injection, schedule: Q04DX003 (ip), vehicle: saline 97 % of control | dose: 25.0 mg/kg/injection, schedule: Q04DX003 (ip), vehicle: saline 98 % of control | dose: 50.0 mg/kg/injection, schedule: Q04DX003 (ip), vehicle: saline 103 % of control | dose: 100.0 mg/kg/injection, schedule: Q04DX003 (ip), vehicle: saline 106 % of control | dose: 200.0 mg/kg/injection, schedule: Q04DX003 (ip), vehicle: saline 92 % of control | dose: 400.0 mg/kg/injection, schedule: Q04DX003 (ip), vehicle: saline 98 % of control

C(/C=C/c1ccccc1)=C\c1ccccc1
inactive: [1] 104 % of control | [2] 104 % of control | [3] 104 % of control | [12] 104 % of control

CCOC(=O)c1c(-c2ccc(OC)c(OC)c2OCc2ccccc2)c(C)c(C)[nH]c1=O
inactive: dose: 75.0 mg/kg/injection, schedule: Q01DX001 (ip), vehicle: carboxymethylcellulose (CMC) 102 % of control | dose: 150.0 mg/kg/injection, schedule: Q01DX001 (ip), vehicle: carboxymethylcellulose (CMC) 102 % of control | dose: 300.0 mg/kg/injection, schedule: Q01DX001 (ip), vehicle: carboxymethylcellulose (CMC) 102 % of control

N#Cc1c(Br)n(C2OC(CO)C(O)C2O)c2ncnc(N)c12 (stereo not drawn)
inactive: [2] 123 % of control | dose: 178.0 mg/kg/injection, schedule: Q01DX001 (ip), vehicle: saline 104 % of control and 115 % of control | dose: 267.0 mg/kg/injection, schedule: Q01DX001 (ip), vehicle: saline 110 % of control and 117 % of control | [12] 112 % of control and 121 % of control | dose: 600.0 mg/kg/injection, schedule: Q01DX001 (ip), vehicle: saline 114 % of control

CN=C(NC)c1cccc(NC(=O)c2ccc(C(=O)Nc3cccc(C(=NC)NC)c3)cc2)c1
inactive: dose: 1.2 mg/kg/injection, schedule: Q01DX Z (ip), vehicle: carboxymethylcellulose (CMC) 93 % of control | dose: 2.5 mg/kg/injection, schedule: Q01DX Z (ip), vehicle: carboxymethylcellulose (CMC) 96 % of control | dose: 5.0 mg/kg/injection, schedule: Q01DX Z (ip), vehicle: carboxymethylcellulose (CMC) 93 % of control | dose: 10.0 mg/kg/injection, schedule: Q01DX Z (ip), vehicle: carboxymethylcellulose (CMC) 100 % of control

COc1cc(C(=O)O)c(Br)c(OC)c1OC
inactive: [4] 103 % of control | [13] 101 % of control | [5] 114 % of control

COC(=O)N1C(c2ccc(OC)cc2)CS1(=O)=O (stereo not drawn)
inactive: dose: 75.0 mg/kg/injection, schedule: Q04DX003 (ip), vehicle: Klucel (hydroxypropylcellulose) (HPC) 101 % of control | dose: 100.0 mg/kg/injection, schedule: Q01DX001 (ip), vehicle: Klucel (hydroxypropylcellulose) (HPC) 97 % of control | dose: 150.0 mg/kg/injection, schedule: Q04DX003 (ip), vehicle: Klucel (hydroxypropylcellulose) (HPC) 98 % of control | dose: 200.0 mg/kg/injection, schedule: Q01DX001 (ip), vehicle: Klucel (hydroxypropylcellulose) (HPC) 102 % of control | dose: 300.0 mg/kg/injection, schedule: Q04DX003 (ip), vehicle: Klucel (hydroxypropylcellulose) (HPC) 116 % of control | dose: 400.0 mg/kg/injection, schedule: Q01DX001 (ip), vehicle: Klucel (hydroxypropylcellulose) (HPC) 97 % of control

O=C(c1ccccc1)c1cc(Cl)ccc1NC(=O)C(Cl)(Cl)Cl
inactive: dose: 50.0 mg/kg/injection, schedule: Q01DX001 (ip), vehicle: saline with Tween-80 97 % of control | [4] 102 % of control | [14] 95 % of control and 89 % of control | dose: 100.0 mg/kg/injection, schedule: Q04DX002 (ip), vehicle: saline with Tween-80 96 % of control and 104 % of control | [13] 92 % of control | [15] 95 % of control and 89 % of control | dose: 200.0 mg/kg/injection, schedule: Q04DX002 (ip), vehicle: saline with Tween-80 93 % of control and 96 % of control | [5] 91 % of control | [16] 89 % of control and 91 % of control | dose: 400.0 mg/kg/injection, schedule: Q04DX002 (ip), vehicle: saline with Tween-80 101 % of control and 89 % of control

Cc1cc(C)c(S(=O)(=O)c2ccc(F)cc2)c(C)c1
inactive: [14] 98 % of control | [15] 98 % of control | [16] 101 % of control

CNc1nc(N)nc2c1nc(Cl)n2C1OC(CO)C(O)C1O (stereo not drawn)
inactive: [2] 100 % of control | [3] 92 % of control | [12] 96 % of control

NC(N)=NC(N)=Nc1ccc2ccccc2c1[N+](=O)[O-]
inactive: dose: 100.0 mg/kg/injection, schedule: Q01DX009 (ip), vehicle: Klucel (hydroxypropylcellulose) (HPC) 94 % of control | dose: 100.0 mg/kg/injection, schedule: Q04DX003 (ip), vehicle: Klucel (hydroxypropylcellulose) (HPC) 97 % of control | dose: 200.0 mg/kg/injection, schedule: Q01DX009 (ip), vehicle: Klucel (hydroxypropylcellulose) (HPC) 100 % of control | dose: 200.0 mg/kg/injection, schedule: Q04DX003 (ip), vehicle: Klucel (hydroxypropylcellulose) (HPC) 100 % of control | dose: 400.0 mg/kg/injection, schedule: Q01DX009 (ip), vehicle: Klucel (hydroxypropylcellulose) (HPC) 98 % of control | dose: 400.0 mg/kg/injection, schedule: Q04DX003 (ip), vehicle: Klucel (hydroxypropylcellulose) (HPC) 95 % of control

CC1CCOC1=O (stereo not drawn)
inactive: [1] 96 % of control | [2] 107 % of control | [3] 105 % of control | [12] 96 % of control

COC(=O)C1=NN(C(C)=O)C(c2ccc(C)cc2)(c2ccc(C)cc2)C1
inactive: dose: 100.0 mg/kg/injection, schedule: Q01DX001 (ip), vehicle: steriod suspending solution 105 % of control | dose: 200.0 mg/kg/injection, schedule: Q01DX001 (ip), vehicle: steriod suspending solution 87 % of control | dose: 400.0 mg/kg/injection, schedule: Q01DX001 (ip), vehicle: steriod suspending solution 92 % of control

O=C(Nc1cccc2ccccc12)c1ccccc1O
inactive: dose: 50.0 mg/kg/injection, schedule: Q01DX001 (ip), vehicle: carboxymethylcellulose (CMC) 113 % of control | [6] 108 % of control | [7] 96 % of control | [8] 116 % of control

COC(=O)C1CN(C)CCC1=O (stereo not drawn)
inactive: [2] 97 % of control | [3] 106 % of control | [12] 95 % of control

CC(=O)OCCn1c([N+](=O)[O-])cnc1/C=[N+](/[O-])CCOC(C)=O
inactive: dose: 100.0 mg/kg/injection, schedule: Q04DX002 (ip), vehicle: saline 103 % of control | dose: 200.0 mg/kg/injection, schedule: Q04DX002 (ip), vehicle: saline 92 % of control | dose: 400.0 mg/kg/injection, schedule: Q04DX002 (ip), vehicle: saline 100 % of control

CCCCCSB(SCCCCC)c1ccccc1
inactive: [2] 89 % of control | [3] 89 % of control | [12] 92 % of control

CCOC(=O)C(=O)Nc1ccc([N+](=O)[O-])cc1
inactive: [9] 87 % of control | [10] 98 % of control | [11] 87 % of control

From PubChem BioAssay AID248 (DTP/NCI, 2004)
